Test results published in the CheMixHub viscosity set.

Assay: xn = mol fraction of the nth substance listed

CS(=O)(=O)[O-].C[NH+]1CCCC1=O + O
viscosity [mPa·s], 100 kPa
Conditions	x1 = 0.00179	x1 = 0.003586	x1 = 0.005368	x1 = 0.008047	x1 = 0.01067	x1 = 0.01419	x1 = 0.02096	x1 = 0.0263	x1 = 0.03141
293.15 K	1.057	1.106	1.151	1.222	1.295	1.396	1.594	1.754	1.917
298.15 K	0.9409	0.9808	1.02	1.08	1.146	1.233	1.409	1.551	1.681
303.15 K	0.8421	0.8782	0.9124	0.9664	1.022	1.099	1.254	1.374	1.483
308.15 K	0.7603	0.7902	0.8191	0.8672	0.9163	0.9865	1.126	1.232	1.325

C=C(C)C(=O)OC + CCCCCC
303.15 K, 101 kPa
Conditions	viscosity [mPa·s]
x1 = 0.1029	0.2962
x1 = 0.2077	0.3069
x1 = 0.4005	0.3338
x1 = 0.5052	0.3523
x1 = 0.6046	0.3758
x1 = 0.7056	0.4934

C=C(C)C(=O)OC + C1CCCCC1
303.15 K, 101 kPa
Conditions	viscosity [mPa·s]
x1 = 0.1178	0.6811
x1 = 0.2021	0.6254
x1 = 0.3973	0.5474
x1 = 0.4984	0.5261
x1 = 0.5963	0.5188
x1 = 0.804	0.5141
x1 = 0.9019	0.5099

CC1(c2ccccc2)OC1C#N (stereo not given) + ClC(Cl)(Cl)Cl
101 kPa, x1 = 0.024
Conditions	viscosity [mPa·s]
293.15 K	1.041
298.15 K	0.964
303.15 K	0.902
313.15 K	0.8
323.15 K	0.723

C=C(C)C(=O)OC + ClCCCl
303.15 K, 101 kPa
Conditions	viscosity [mPa·s]
x1 = 0.1012	0.6868
x1 = 0.1978	0.6544
x1 = 0.3975	0.6068
x1 = 0.4985	0.5867
x1 = 0.6234	0.5632
x1 = 0.8713	0.5284
